From patent US6809111B2, “Prodrugs of COX-2 inhibitors” (Pharmacia Corporation, priority 2001, dated 2004)

Experiments:
[1] = tested on: carrageenan-induced inflammatory response in air pouch; assay: Air-pouch model of inflammation (carrageenan); format: in vivo; conditions: male Lewis rats
Procedure: Male Lewis rats (175-200 g) were used. Air cavities were produced by subcutaneous injection of 20 mL of sterile air into the intrascapular area of the back. An additional 10 mL of air was injected into the cavity every 3 days to keep the space open. Seven days after the initial air injection, 2 mL of a 1% solution of carrageenan (Sigma) dissolved in saline was injected directly into the pouch to produce an inflammatory response. The volume of exudate was measured […]. The differential cell count was determined by Wright-Giemsa staining. PGE2 and 6-keto-PGF1α were determined in the pouch exudates by specific ELISAs (Cayman Chemicals, Ann Arbor, Mich.).

Row | SMILES | melting point [°C] | AIR POUCH TEST % Inhibition @ 20 mg/kg body weight [1] [%]
1 | Cc1ccc(-c2cc(C(F)(F)F)nn2-c2ccc(S(=O)(=O)NCCO)cc2)cc1 [Example 3, N-(2-hydroxyethyl)-4-[5-(4-methylphenyl)-3-(trifluoromethyl)-1H1-pyrazol-1-yl]benzenesulfonamide] | 57.8 | 59
2 | Cc1ccc(-c2cc(C(F)(F)F)nn2-c2ccc(S(=O)(=O)N(CCO)CCO)cc2)cc1 [Example 4, N,N-bis(2-hydroxyethyl)-4-[5-(4-methylphenyl)-3-(trifluoromethyl)-1H-pyrazol-1-yl]benzenesulfonamide] | 79.1 | 10
